MIC data for 17 molecules are collected here from ChEMBL document CHEMBL1150474, “Synthesis of new penem dithiocarbamates” (1993).

Molecules are shown by their SMILES.

Format in all cases: functional
Test [1] relates to Escherichia coli. Briefly: Antibacterial activity against Escherichia coli ATCC 25922.
The test system of test [2] is Escherichia coli. Briefly: Antibacterial activity against Escherichia coli DC2, hyperpermeable strain.
The subject of test [3] is Pseudomonas aeruginosa. Briefly: Antibacterial activity against Pseudomonas aeruginosa ATCC 27853.
For test [4], the system named is Pseudomonas aeruginosa. Description: Antibacterial activity against Pseudomonas aeruginosa VR5.
Test [5] concerns Staphylococcus aureus. Briefly: Antibacterial activity against Staphylococcus aureus ATCC 25923.
The test system of test [6] is Staphylococcus aureus. Description: Antibacterial activity against Staphylococcus aureus MR 0.13.

The term MIC denotes the lowest concentration that inhibits growth of the organism. Lower therefore signals inhibition by little substance. `C[C@@H](O)[C@H]1C(=O)N2C(C(=O)[O-])=C(CSC(=S)N(C)Cc3ccccc3)S[C@H]12.[Na+]`: the MIC in the test with Escherichia coli [1] was > 32 µg/mL; against Escherichia coli [2], 1 µg/mL; against Pseudomonas aeruginosa [3], > 32 µg/mL; in the test on Pseudomonas aeruginosa [4], 32 µg/mL; in the test on Staphylococcus aureus [5] it was 0.06 µg/mL; against Staphylococcus aureus [6] it was 0.5 µg/mL.

Take `C[C@@H](O)[C@H]1C(=O)N2C(C(=O)[O-])=C(CSC(=S)N3CCN(C)CC3)S[C@H]12.[Na+]`: the MIC was 4 µg/mL with Escherichia coli [1]; 0.5 µg/mL in the test with Escherichia coli [2]; > 32 µg/mL in the test on Pseudomonas aeruginosa [3]; 4 µg/mL against Pseudomonas aeruginosa [4]; 0.03 µg/mL in the test on Staphylococcus aureus [5]; 0.06 µg/mL in the test on Staphylococcus aureus [6].

On to `CC(=O)OCCN(CCOC(C)=O)C(=S)SCC1=C(C(=O)[O-])N2C(=O)[C@H]([C@@H](C)O)[C@H]2S1.[Na+]`, for which the MIC was > 32 µg/mL against Escherichia coli [1]; 2 µg/mL against Escherichia coli [2]; > 32 µg/mL in the test with Pseudomonas aeruginosa [3]; > 32 µg/mL against Pseudomonas aeruginosa [4]; 0.12 µg/mL in the test with Staphylococcus aureus [5]; 0.5 µg/mL in the test with Staphylococcus aureus [6].

Consider `C[C@@H](O)[C@H]1C(=O)N2C(C(=O)[O-])=C(CSC(=S)N(C)CC(N)=O)S[C@H]12.[Na+]`, for which the MIC is 8 µg/mL against Escherichia coli [1]; 0.5 µg/mL with Escherichia coli [2]; > 32 µg/mL with Pseudomonas aeruginosa [3]; 4 µg/mL against Pseudomonas aeruginosa [4]; 0.12 µg/mL with Staphylococcus aureus [5]; 0.03 µg/mL against Staphylococcus aureus [6].

With `C[C@@H](O)[C@H]1C(=O)N2C(C(=O)[O-])=C(CSC(=S)N3CCN(C(=O)c4ccc(O)c(O)c4)CC3)S[C@H]12.[Na+]`, the minimal inhibitory concentration (MIC) against Escherichia coli [1] is > 32 µg/mL; against Escherichia coli [2] it was 0.5 µg/mL; with Pseudomonas aeruginosa [3], > 32 µg/mL; with Staphylococcus aureus [5], 0.25 µg/mL; against Staphylococcus aureus [6], 1 µg/mL.

In the case of `C[C@@H](O)[C@H]1C(=O)N2C(C(=O)[O-])=C(CSC(=S)N(C)c3ccccn3)S[C@H]12.[Na+]`, the MIC with Escherichia coli [1] was > 32 µg/mL; in the test with Escherichia coli [2], 1 µg/mL; against Pseudomonas aeruginosa [3] it was > 32 µg/mL; against Pseudomonas aeruginosa [4], > 32 µg/mL; in the test on Staphylococcus aureus [5], 0.06 µg/mL; against Staphylococcus aureus [6], 0.5 µg/mL.

For `C[C@@H](O)[C@H]1C(=O)N2C(C(=O)[O-])=C(CSC(=S)N(CCO)CCO)S[C@H]12.[Na+]`, the MIC against Escherichia coli [1] was 32 µg/mL; with Escherichia coli [2], 4 µg/mL; against Pseudomonas aeruginosa [3], > 32 µg/mL; in the test on Pseudomonas aeruginosa [4], 2 µg/mL; with Staphylococcus aureus [5], 0.25 µg/mL; in the test on Staphylococcus aureus [6], 0.5 µg/mL.

With `CC1(C)S[C@@H]2[C@H](NC(=O)[C@H](N)c3ccccc3)C(=O)N2[C@H]1C(=O)O.CC1(C)[C@H](C(=O)O)N2C(=O)C[C@H]2S1(=O)=O`, the MIC against Escherichia coli [1] is 8 µg/mL; in the test on Pseudomonas aeruginosa [3], 32 µg/mL; in the test with Pseudomonas aeruginosa [4], 0.25 µg/mL; against Staphylococcus aureus [5], 0.25 µg/mL; against Staphylococcus aureus [6] it was 0.12 µg/mL.

For `C[C@@H](O)[C@H]1C(=O)N2C(C(=O)[O-])=C(CSC(=S)N(C)CCc3ccccn3)S[C@H]12.[Na+]`, the MIC is > 32 µg/mL against Escherichia coli [1]; 2 µg/mL against Escherichia coli [2]; > 32 µg/mL against Pseudomonas aeruginosa [3]; > 32 µg/mL with Pseudomonas aeruginosa [4]; 0.06 µg/mL against Staphylococcus aureus [5]; 0.12 µg/mL with Staphylococcus aureus [6].

For `C[C@@H](O)[C@H]1C(=O)N2C(C(=O)[O-])=C(CSC(=S)N3CCOCC3)S[C@H]12.[Na+]`, the MIC was 32 µg/mL with Escherichia coli [1]; 0.5 µg/mL against Escherichia coli [2]; > 32 µg/mL with Pseudomonas aeruginosa [3]; 0.5 µg/mL in the test with Pseudomonas aeruginosa [4]; 0.03 µg/mL in the test on Staphylococcus aureus [5]; 0.06 µg/mL against Staphylococcus aureus [6].

On to `C[C@@H](O)[C@H]1C(=O)N2C(C(=O)[O-])=C(CSC(=S)N(C)C)S[C@H]12.[Na+]`, for which the MIC against Escherichia coli [1] is 32 µg/mL; in the test on Escherichia coli [2], 0.12 µg/mL; against Pseudomonas aeruginosa [3] it was > 32 µg/mL; against Pseudomonas aeruginosa [4] it was 1 µg/mL; in the test with Staphylococcus aureus [5], 0.03 µg/mL; in the test with Staphylococcus aureus [6], 0.06 µg/mL.

Take `C[C@@H](O)[C@H]1C(=O)N2C(C(=O)[O-])=C(CSC(=S)N(C)c3ccccc3)S[C@H]12.[Na+]`: the MIC was > 32 µg/mL in the test on Escherichia coli [1]; 1 µg/mL against Escherichia coli [2]; > 32 µg/mL with Pseudomonas aeruginosa [3]; > 32 µg/mL against Pseudomonas aeruginosa [4]; 0.03 µg/mL in the test with Staphylococcus aureus [5]; 0.25 µg/mL with Staphylococcus aureus [6].

With `C[C@@H](O)[C@H]1C(=O)N2C(C(=O)[O-])=C(CSC(=S)N(C)OCc3ccccc3)S[C@H]12.[Na+]`, the MIC is > 32 µg/mL against Escherichia coli [1]; 2 µg/mL in the test on Escherichia coli [2]; > 32 µg/mL in the test on Pseudomonas aeruginosa [3]; 32 µg/mL with Pseudomonas aeruginosa [4]; 0.03 µg/mL against Staphylococcus aureus [5]; 0.12 µg/mL in the test with Staphylococcus aureus [6].

For `C[C@@H](O)[C@H]1C(=O)N2C(C(=O)[O-])=C(CSC(=S)N3CCNCC3)S[C@H]12.[Na+]`, the MIC in the test on Escherichia coli [1] was 8 µg/mL; against Escherichia coli [2], 4 µg/mL; in the test with Pseudomonas aeruginosa [3], > 32 µg/mL; with Pseudomonas aeruginosa [4] it was 4 µg/mL; against Staphylococcus aureus [5], 0.12 µg/mL; in the test with Staphylococcus aureus [6] it was 0.25 µg/mL.

Take `C[C@@H]([O-])[C@H]1C(=O)N2C(C(=O)[O-])=C(CSC(=S)N3CC[N+](C)(C)CC3)S[C@H]12.[Na+]`: the MIC was 4 µg/mL with Escherichia coli [1]; 2 µg/mL in the test with Escherichia coli [2]; > 32 µg/mL against Pseudomonas aeruginosa [3]; 4 µg/mL against Pseudomonas aeruginosa [4]; 0.03 µg/mL against Staphylococcus aureus [5]; 0.03 µg/mL against Staphylococcus aureus [6].

For the molecule `CC(=O)N1CCN(C(=S)SCC2=C(C(=O)[O-])N3C(=O)[C@H]([C@@H](C)O)[C@H]3S2)CC1.[Na+]`, the MIC was 16 µg/mL against Escherichia coli [1]; 4 µg/mL against Escherichia coli [2]; > 32 µg/mL with Pseudomonas aeruginosa [3]; 16 µg/mL in the test with Pseudomonas aeruginosa [4]; 0.12 µg/mL against Staphylococcus aureus [5]; 0.12 µg/mL in the test on Staphylococcus aureus [6].

With `C[C@@H](O)[C@H]1C(=O)N2C(C(=O)[O-])=C(CSC(=S)N3CCCC3)S[C@H]12.[Na+]`, the MIC was > 32 µg/mL against Escherichia coli [1]; 0.5 µg/mL in the test with Escherichia coli [2]; > 32 µg/mL in the test with Pseudomonas aeruginosa [3]; > 32 µg/mL against Pseudomonas aeruginosa [4]; 0.03 µg/mL against Staphylococcus aureus [5]; 0.12 µg/mL in the test with Staphylococcus aureus [6].
